Assay results from ChEMBL document CHEMBL1139021, “Synthesis of Tic-D-Phe Psi[CH2-CH2] isostere and its use in the development of melanocortin receptor agonists” (Bioorg Med Chem Lett, 2006).
pEC50, pKi: −log10 of the molar value. Where a SMILES comes first, the peptide text is derived from it. [ ]: non-standard residue; d: D form. 2Nal = N[C@@H](Cc1ccc2ccccc2c1)C(=O)O

Tests used:
Melanocortin receptor 3 = Melanocortin receptor 3 (Homo sapiens, UniProt P41968); assay: Binding affinity to MC3 receptor
Sequence of Melanocortin receptor 3 (P41968 whole entry): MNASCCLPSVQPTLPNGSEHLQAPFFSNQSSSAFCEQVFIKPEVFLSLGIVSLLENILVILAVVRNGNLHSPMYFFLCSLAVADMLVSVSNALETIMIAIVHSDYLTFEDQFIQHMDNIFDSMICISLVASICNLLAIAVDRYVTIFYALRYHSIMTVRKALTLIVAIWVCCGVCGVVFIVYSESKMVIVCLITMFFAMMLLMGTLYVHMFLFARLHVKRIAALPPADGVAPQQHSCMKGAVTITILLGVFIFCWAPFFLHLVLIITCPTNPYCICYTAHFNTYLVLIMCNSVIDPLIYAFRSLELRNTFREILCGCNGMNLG

Melanocortin receptor 4 [1] = target: T1, Melanocortin receptor 4 (Homo sapiens, UniProt P32245); assay: Binding affinity to MC4 receptor
T1 sequence (P32245 whole entry): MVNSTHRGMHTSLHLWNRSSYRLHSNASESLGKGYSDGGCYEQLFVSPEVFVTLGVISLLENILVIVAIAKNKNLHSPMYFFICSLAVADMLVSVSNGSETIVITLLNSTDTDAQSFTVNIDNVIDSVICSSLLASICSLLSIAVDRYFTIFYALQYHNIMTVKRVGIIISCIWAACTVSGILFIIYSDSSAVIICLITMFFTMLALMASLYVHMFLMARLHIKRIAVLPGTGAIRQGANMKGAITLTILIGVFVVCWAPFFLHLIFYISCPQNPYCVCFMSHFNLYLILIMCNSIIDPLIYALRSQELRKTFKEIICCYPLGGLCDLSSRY

[2] = target: Melanocyte-stimulating hormone receptor (Homo sapiens, UniProt Q01726); assay: Binding affinity to MC1 receptor
Sequence of Melanocyte-stimulating hormone receptor (Q01726 whole entry): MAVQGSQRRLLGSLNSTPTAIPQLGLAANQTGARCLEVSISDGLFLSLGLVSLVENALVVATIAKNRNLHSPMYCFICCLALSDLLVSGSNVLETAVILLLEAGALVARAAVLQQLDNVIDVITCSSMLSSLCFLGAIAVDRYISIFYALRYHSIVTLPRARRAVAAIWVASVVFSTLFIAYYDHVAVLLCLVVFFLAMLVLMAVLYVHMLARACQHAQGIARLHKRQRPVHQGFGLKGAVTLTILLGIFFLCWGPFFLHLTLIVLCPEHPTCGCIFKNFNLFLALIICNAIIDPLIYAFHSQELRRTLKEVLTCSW

Melanocortin receptor 4 [3] = target: T1, Melanocortin receptor 4; assay: Agonist potency at MC4 receptor; type: functional

Compound	pKi (Melanocortin receptor 3)	pKi (Melanocortin receptor 4 [1])	pKi [2]	pEC50 (Melanocortin receptor 4 [3])	Emax (Melanocortin receptor 4 [3]) [%]
CNC(=O)[C@H](Cc1ccc2ccccc2c1)NC(=O)[C@H](CCCN=C(N)N)NC(=O)[C@H](CC[C@@H]1Cc2ccccc2CN1)Cc1ccccc1	5.62	6.66	5.40	6.80	77
CC(=O)N[C@H](Cc1ccc(O)cc1)C(=O)N[C@H](Cc1ccccc1)C(=O)N1C[C@H](OCc2ccccc2)C[C@@H]1CCCN=C(N)N	7.64	8.00	8.05	8.10	84
N=C(N)NCCC[C@H]1C[C@@H](OCc2ccccc2)CN1C(=O)[C@H](CC[C@H]1Cc2ccccc2CN1)Cc1ccccc1	6.42	7.12	7.15	6.85	76
CNC(=O)[C@H](Cc1ccc2ccccc2c1)NC(=O)[C@H](CCCN=C(N)N)NC(=O)[C@H](CC[C@H](Cc1ccccc1)NC(C)=O)Cc1ccc(F)cc1	4.26	7.43	4.63	7.70	102
N=C(N)NCCC[C@H]1C[C@@H](OCc2ccccc2)CN1C(=O)[C@@H](Cc1ccccc1)NC(=O)C1Cc2ccccc2CN1 (single isomer, unassigned)	6.33	7.89	7.52	7.66	89
CNC(=O)[C@H](Cc1ccc2ccccc2c1)NC(=O)[C@H](CCCN=C(N)N)NC(=O)[C@H](CC[C@H](Cc1ccc(O)cc1)NC(C)=O)Cc1ccccc1	4.61	6.67	5.07	7.42	90
CNC(=O)[C@H](Cc1ccc2ccccc2c1)NC(=O)[C@H](CCCN=C(N)N)NC(=O)[C@H](CC[C@H](Cc1ccc(Cl)cc1)NC(C)=O)Cc1ccc(F)cc1	4.74	6.67	4.91	6.71	100
CNC(=O)[C@H](Cc1ccc2ccccc2c1)NC(=O)[C@H](CCCN=C(N)N)NC(=O)[C@H](CC[C@H](Cc1ccc(O)cc1)NC(C)=O)Cc1ccc(F)cc1	5.21	8.30	4.65	8.00	91
CNC(=O)[C@H](Cc1ccc2ccccc2c1)NC(=O)[C@H](CCCN=C(N)N)NC(=O)[C@@H](Cc1ccccc1)NC(=O)[C@@H]1Cc2ccccc2CN1	5.79	7.62	5.64	8.00	81
CNC(=O)[C@H](Cc1ccc2ccccc2c1)NC(=O)[C@H](CCCN=C(N)N)NC(=O)[C@@H](Cc1ccccc1)NC(=O)[C@H](Cc1ccc(O)cc1)NC(C)=O (Ac-Y[dF]R[2Nal]-NHMe)	5.76	6.98	5.34	7.36	
